Reference: patent US20230130103A1, “TARGETED PHARMACOLOGICAL THERAPEUTICS IN UVEAL MELANOMA” (Washington University, priority 2017, published 2023)
Starred links: 1 amine or outer side, 2 acyl side, 3 side chain; linkers in the order of their positions; H or OH if unused. Positions of bridges follow the written chain, without caps; N, C: chain ends. Non-standard residues stand in square brackets, D forms with d. Residues, ends and D or L forms follow the SMILES beside them. *: point of attachment. Leu(3R-OH,Nα-propionyl) = CCC(=O)N[C@H](C(=O)*)[C@H](O)C(C)C; X1 = CC(C)[C@@H](O[*:3])[C@H](N[*:1])C(=O)[*:2]; X2 = CC(C)[C@H](O[*:3])[C@@H](N[*:1])C(=O)[*:2]; NMeaThr = CN[C@H](C(=O)O)[C@H](C)O; dPhLac = O=C(O)[C@H](O)Cc1ccccc1; NMeA = CN[C@@H](C)C(=O)O; NMeDha = C=C(NC)C(=O)O

Tested on: 92.1 UM cells
Assay: Gene Set Enrichment Analysis (GSEA) of RNA-Seq data
Assay type: cell-based, Human
[1] = gene set REACTOME_ADAPTIVE_IMMUNE_SYSTEM
[2] = gene set REACTOME_APC_C_CDC20_MEDIATED_DEGRADATION_OF_MITOTIC_PROTEINS
[3] = gene set REACTOME_APC_C_CDH1_MEDIATED_DEGRADATION_OF_CDC20_AND_OTHER_APC_C_CDH1_TARGETED_PROTEINS_IN_LATE_MITOSIS_EARLY_G1
[4] = gene set REACTOME_B[?]_INFECTION
[5] = gene set REACTOME_CHOLESTEROL_BIOSYNTHESIS
[6] = gene set REACTOME_DOUBLE_STRAND_BREAK_REPAIR
[7] = gene set REACTOME_E2F_MEDIATED_REGULATION_OF_DNA_REPLICATION
[8] = gene set REACTOME_EXTENSION_OF_TELOMERES
[9] = gene set REACTOME_FACTORS_INVOLVED_IN_MEGAKARYOCYTE_DEVELOPMENT_AND_PLATELET_PRODUCTION
[10] = gene set REACTOME_G0_AND_EARLY_G1
[11] = gene set REACTOME_HOST_INTERACTIONS_HIV_FACTORS
[12] = gene set REACTOME_LICAM_INTERACTIONS
[13] = gene set REACTOME_METABOLISM_OF_NON_CODING_RNA
[14] = gene set REACTOME_PREFOLDIN_MEDIATED_TRANSFER_OF_SUBSTRATE_TO_CCT_TRIC
[15] = gene set REACTOME_TRANSPORT_OF_MATURE_MRNA_DERIVED_FROM_AN_INTRONLESS_TRANSCRIPT
[16] = gene set REACTOME_[?]_REMOVAL_FROM_CHROMATIN
[17] = gene set REACTOM_GLUCONE_TRANSPORT
[18] = gene set RMEIN_GLUCOCORTICOID_THERAPY_DN
[19] = gene set SAKAL_CHRONIC_HEPATITIS_VS_LIVER_CANCER_UP
[20] = gene set SASAKI_ADULT_T_CELL_LEUKEMIA
[21] = gene set SASSON_RESPONSE_TO_FORSKOLIN_UP
[22] = gene set SASSON_RESPONSE_TO_GONADOTRPHINS_UP
[23] = gene set SCHMIDT_FOR_TARGETS_IN_LIMB_BUD_UP
[24] = gene set SCIBETTA_KDMS8_TARGETS_DN
[25] = gene set SENESE_HDAC1_TARGETS_UP
[26] = gene set SENESE_HDAC2_TARGETS_UP
[27] = gene set SHEPARD_CRUSH_AND_BURN_MUTANT_DN
[28] = gene set SMIRNOV_RESPONSE_TO_IR_6HR_DN
[29] = gene set WAKASUGI_HAVE_ZNF143_BINDING_SITES
[30] = gene set WELSCH_BRCA1_TARGETS_DN
[31] = gene set WHITFIELD_CELL_CYCLE_5
[32] = gene set WHITFIELD_CELL_CYCLE_M_G2
[33] = gene set [?]_APOPTOSIS_BY_REOVIRUS_INFECTION_DN
[34] = gene set [?]_E2F3_ONCOGENIC_SIGNATURE
[35] = gene set [?]_ESTRADIOL_RESPONSE_6HR_UP
[36] = gene set [?]_HYPOXIA_NOT_VIA_[?]
[37] = gene set [?]_OVARIAN_CANCER_INVAVSIVE_VS_LMP_UP
[38] = gene set [?]_PSEUDOPODIA_HAPTOTAXIS_DN
[39] = gene set […]_NEUTROPHIL_AT_SKIN_WOUND_DN
[40] = gene set mARTORIATE_MDM4_TARGETS_FETAL_LIVER_DN

C=C1C(=O)N[C@@H](C)C(=O)N(C)[C@@H](C)C(=O)N[C@H]([C@@H](OC(=O)[C@@H](NC(=O)CC)[C@H](O)C(C)C)C(C)C)C(=O)N(C)[C@@H]([C@H](C)OC)C(=O)O[C@H](C(C)C)[C@H](NC(C)=O)C(=O)O[C@H](Cc2ccccc2)C(=O)N1C [FR, [(1S)-1-[(3S,6R,9S,12S,18R,21S,22R)-21-acetamido-18-benzyl-3-[(1S)-1-methoxyethyl]-4,9,10,12,16-pentamethyl-15-methylidene-2,5,8,11,14,17,20-heptaoxo-22-propan-2-yl-1,19-dioxa-4,7,10,13,16-pentazacyclodocos-6-yl]-2-methylpropyl] (2S,3R)-3-hydroxy-4-methyl-2-(propanoylamino)pentanoate] (Ac-[X1][dPhLac][NMeDha]A[NMeA][X2](Leu(3R-OH,Nα-propionyl))[NMeaThr](Me); ester 1-C)
ES [1]: 0.3979
NES [1]: 2.13
ES [2]: 0.5518
NES [2]: 2.142
ES [3]: 0.56
NES [3]: 2.187
ES [4]: 0.4639
NES [4]: 2.188
ES [5]: 0.6781
NES [5]: 2.138
ES (gene set REACTOME_DNA_REPAIR): 0.4835
NES (gene set REACTOME_DNA_REPAIR): 2.1
ES [6]: 0.6821
NES [6]: 2.156
ES [7]: 0.5585
NES [7]: 2.256
ES [8]: 0.6128
NES [8]: 2.062
ES [9]: 0.4943
NES [9]: 2.346
ES [10]: 0.5589
NES [10]: 2.109
ES [11]: 0.4871
NES [11]: 2.139
ES [12]: 0.4901
NES [12]: 2.064
ES [13]: 0.5725
NES [13]: 2.142
ES (gene set REACTOME_NEP_NS2_INTERACTS_WITH_THE_CELLULAR_EXPORT_MACHINERY): 0.6472
ES [14]: 0.6276
NES [14]: 2.059
ES [15]: 0.6258
NES [15]: 2.187
ES [16]: 0.5346
NES [16]: 2.104
ES [17]: 0.6343
NES [17]: 2.211
NES (gene set REN_ALVEOLAR_RHABDOMYOSARCOMA_DN): 2.084
ES [18]: 0.429
NES [18]: 2.253
ES [19]: 0.4953
NES [19]: 2.051
ES [20]: 0.4693
NES [20]: 2.213
ES [21]: 0.4936
NES [21]: 2.087
ES [22]: 0.5309
NES [22]: 2.23
ES [23]: 0.6919
NES [23]: 2.232
ES [24]: 0.4986
NES [24]: 2.107
ES [25]: 0.4141
NES [25]: 2.222
ES [26]: 0.4933
NES [26]: 2.179
ES (gene set SHEPARD_BMYB_TARGETS): 0.5123
NES (gene set SHEPARD_BMYB_TARGETS): 2.125
ES [27]: 0.4366
NES [27]: 2.055
NES (gene set SHIPP_D[?]CL_VS_FOLLICULAR_LYMPHOMA_UP): 2.142
ES [28]: 0.4874
NES [28]: 2.135
ES (gene set SP1_Q4_01): 0.4346
NES (gene set SP1_Q4_01): 2.133
ES (gene set TBK1DF_DN): 0.434
NES (gene set TBK1DF_DN): 2.201
ES [29]: 0.5464
NES [29]: 2.135
ES [30]: 0.4808
NES [30]: 2.25
ES [31]: 0.4808
NES [31]: 2.252
ES [32]: 0.4742
NES [32]: 2.151
ES (gene set WINTER_HYPOXIA_UP): 0.5079
NES (gene set WINTER_HYPOXIA_UP): 2.091
ES (gene set [?]ENPORAIN_17513976.21_2): 0.5458
ES [33]: 0.4088
NES [33]: 2.137
ES [34]: 0.4474
NES [34]: 2.256
ES [35]: 0.4279
NES [35]: 2.138
ES [36]: 0.3777
NES [36]: 2.125
ES [37]: 0.4908
NES [37]: 2.191
ES [38]: 0.396
NES [38]: 2.222
ES (gene set [?]_[?]1): 0.4368
NES (gene set [?]_[?]1): 2.127
ES (gene set [?]_[?]_Q6): 0.372
NES (gene set [?]_[?]_Q6): 2.07
ES [39]: 0.4325
NES [39]: 2.066
ES [40]: 0.4046
NES [40]: 2.198
